15 compounds from ChEMBL document CHEMBL3120082, “Synthesis and in vitro anti-proliferative effects of 3-(hetero)aryl substituted 3-[(prop-2-ynyloxy)(thiophen-2-yl)methyl]pyridine derivatives on various cancer cell lines” (Bioorg Med Chem Lett, 2014) can be followed below.

Activity calls are given as the source filed them. The calls are words filed in the database; no cut-off is given here.

The subject of data set [1] is MCF7. In words: Cytotoxicity against estrogen receptor-positive human MCF7 cells after 24 hrs by MTT assay. The class given is functional, cell-based. Conditions: MCF7, 24 h.
In data set [2] the test system is MDA-MB-231. In words: Cytotoxicity against estrogen receptor-negative human MDA-MB-231 cells after 24 hrs by MTT assay. The class given is functional, cell-based. Particulars: MDA-MB-231, 24 h. A general note: Tetrazolium assays rely on reduction of a dye to a coloured formazan, in cell work by metabolically active cells.
Data set [3] concerns MCF7. In words: Cytotoxicity against estrogen receptor-positive human MCF7 cells assessed as cell viability at 10 uM after 24 hrs by MTT assay. Conditions: for inhibition of growth at 10 µM: MCF7, 24 h, read-out: GI. The class given is functional.
Another data set deals with K562. Briefly: Cytotoxicity against human K562 cells assessed as cell viability at 10 uM after 24 hrs by MTT assay. The data set is classed as functional. Particulars: for inhibition of growth at 10 µM: K562, 24 h, read-out: GI.
The subject of data set [4] is MDA-MB-231. In words: Cytotoxicity against estrogen receptor-negative human MDA-MB-231 cells assessed as cell viability at 10 uM after 24 hrs by MTT assay. The data set is classed as functional. Particulars: for inhibition of growth at 10 µM: MDA-MB-231, 24 h, read-out: GI.
The nature of data set [5]: Cytotoxicity against human HEK293 cells assessed as cell viability at 10 uM after 24 hrs by MTT assay. Conditions: read-out: GI. The class given is cell-based.
A further data set has as its system COLO 205. Briefly: Cytotoxicity against human COLO205 cells assessed as cell viability at 10 uM after 24 hrs by MTT assay. The class given is functional. Particulars: for inhibition of growth at 10 µM: COLO 205, 24 h, read-out: GI.
Data set [6] in a line: (§1) Cytotoxicity against human IMR32 cells assessed as cell viability at 10 uM after 24 hrs by MTT assay. The data set is classed as functional. Particulars: IMR-32, 24 h, read-out: GI.
The subject of another data set is HepG2. In words: Cytotoxicity against human HepG2 cells assessed as cell viability at 10 uM after 24 hrs by MTT assay. Conditions: for inhibition of growth at 10 µM: HepG2, 24 h, read-out: GI. The class given is functional.
A further data set relates to IMR-32. The data set is described as §1. The data set is classed as functional.

A word on the IC50: it is the midpoint of a concentration-inhibition curve.

On to `COc1cccc2c1C(=O)c1c(O)c3c(c(O)c1C2=O)C[C@@](O)(C(=O)CO)C[C@@H]3O[C@H]1C[C@H](N)[C@H](O)[C@H](C)O1` [DOXORUBICIN], for which the half-inhibitory concentration (IC50) with MCF7 [1] was determined as 440 nM; in the data set with MDA-MB-231 [2], 650 nM.
Regarding `CCOC(=O)c1sc2c(c1C#CCOC(c1cccs1)c1cccnc1Cl)CCC2` (stereo not given), the inhibition of growth at 10 µM in the data set on MCF7 [3] came to 25%; with K562, 65.1%; in the data set on MDA-MB-231 [4], 37.9%; in the data set on COLO 205 it was 46%; in data set [6] it was 25.2%; in the data set on HepG2, 21.9%. In addition, the inhibition at 24 h, 10 µM in data set [5] is -1.6%.
For `O=C(O)c1ccccc1C#CCOC(c1cccs1)c1cccnc1Cl` (stereo not given), the inhibition of growth at 10 µM stood at 35.9% in the data set on MCF7 [3]; 40.2% in the data set on K562; 47.9% with MDA-MB-231 [4]; 34.7% in the data set on COLO 205; 38.1% in data set [6]; 33.1% in the data set with HepG2. Moreover, the inhibition at 24 h, 10 µM in [5] was 2.7%.
Regarding `Oc1ccccc1C#CCOC(c1cccs1)c1cccnc1Cl` (stereo not given), the inhibition of growth at 10 µM in the data set on MCF7 [3] was 67.7%; in the data set with K562 it was 40.6%; in the data set on MDA-MB-231 [4] it was 70.8%; in the data set with COLO 205, 28.5%; in data set [6] it was 34.4%; with HepG2, 13.6%. Further, the inhibition at 24 h, 10 µM in data set [5] is 6%. The IC50 in the data set on MCF7 [1] came to 1510 nM; with MDA-MB-231 [2] (read-out: IC50), 1100 nM.
`O=[N+]([O-])c1ccccc1C#CCOC(c1cccs1)c1cccnc1Cl` (stereo not given): the inhibition of growth at 10 µM stood at 34.8% in the data set with MCF7 [3]; 18.9% with K562; 48% with MDA-MB-231 [4]; 16.5% in the data set with COLO 205; 53.2% in data set [6]; 46.2% with HepG2. The inhibition at 24 h, 10 µM in data set [5] was 0.1%.
Turning to `Nc1ccccc1C#CCOC(c1cccs1)c1cccnc1Cl` (stereo not given), the inhibition of growth at 10 µM is 69.3% in the data set with MCF7 [3]; 43.8% with K562; 73.3% in the data set with MDA-MB-231 [4]; 37.8% in the data set with COLO 205; 47.6% in data set [6]; 36.2% in the data set with HepG2. Moreover, the inhibition at 24 h, 10 µM in data set [5] was 3.2%. Also, the half-inhibitory concentration (IC50) with MCF7 [1] came to 1290 nM; in the data set on MDA-MB-231 [2] (read-out: IC50) it was 950 nM.
`CCOC(=O)c1c[nH]nc1C#CCOC(c1cccs1)c1cccnc1Cl` (stereo not given): the inhibition of growth at 10 µM in the data set on MCF7 [3] is 33.8%; in the data set with K562 it was 54.8%; in the data set with MDA-MB-231 [4], 35.3%; in the data set with COLO 205 it was 45.8%; in data set [6] it was 30.9%; with HepG2, 34.3%. Further, in data set [5], the inhibition at 24 h, 10 µM stood at 0.4%.
In the case of `O=C(O)c1ccc(C#CCOC(c2cccs2)c2cccnc2Cl)cc1` (stereo not given), the inhibition of growth at 10 µM in the data set on MCF7 [3] came out at 35.9%; in the data set with K562 it was 57.7%; with MDA-MB-231 [4] it was 38.9%; in the data set with COLO 205, 44%; in data set [6], 39.6%; in the data set with HepG2 it was 38.2%. Also, the inhibition at 24 h, 10 µM in data set [5] stood at 4.8%.
As for `CCOC(=O)COC(c1cccs1)c1cccnc1Cl` (stereo not given), the “growth inhibition (GI)” value with MCF7 [3], with K562, in the data set on MDA-MB-231 [4], with COLO 205, in the data set on IMR-32 and with HepG2 was “inactive” throughout.
Turning to `OC(c1cccs1)c1cccnc1Cl` (stereo not given), the “growth inhibition (GI)” value with MCF7 [3], in the data set with K562, in the data set on MDA-MB-231 [4], in the data set on COLO 205, with IMR-32 and in the data set with HepG2 was “inactive” in each case.
`CCOC(=O)c1c(C#CCOC(c2cccs2)c2cccnc2Cl)sc2c1CCCC2` (stereo not given): the inhibition of growth at 10 µM with MCF7 [3] was 31.8%; with K562, 53%; with MDA-MB-231 [4], 46.4%; in the data set on COLO 205, 32.1%; in [6] it was 22.5%; in the data set on HepG2 it was 29.5%. The inhibition at 24 h, 10 µM in data set [5] was -0.9%.
As to `Clc1ncccc1C(OCC#Cc1ccc(I)cc1)c1cccs1` (stereo not given), the inhibition of growth at 10 µM in the data set on MCF7 [3] amounted to 45.6%; in the data set with K562, 48%; with MDA-MB-231 [4] it was 52.2%; in the data set on COLO 205, 39%; in data set [6], 60%; with HepG2, 54.2%. In addition, the inhibition at 24 h, 10 µM in [5] came out at 0%.
Take `O=C(O)COC(c1cccs1)c1cccnc1Cl` (stereo not given): the “growth inhibition (GI)” value with MCF7 [3], in the data set on K562, in the data set with MDA-MB-231 [4], in the data set on COLO 205, in the data set with IMR-32 and with HepG2 was “inactive” in each case.
With `COc1ccc(C#CCOC(c2cccs2)c2cccnc2Cl)cc1` (stereo not given), the inhibition of growth at 10 µM is 64.7% in the data set with MCF7 [3]; 33.8% with K562; 70.1% in the data set with MDA-MB-231 [4]; 31.6% in the data set on COLO 205; 20.7% in [6]; 13.9% in the data set with HepG2. The inhibition at 24 h, 10 µM in data set [5] was -1.1%. Also, the values for the IC50 in the data set on MCF7 [1] and in the data set with MDA-MB-231 [2] (read-out: IC50) were 1720 nM and 1160 nM, respectively.
Take `O=C1Nc2ccc(C#CCOC(c3cccs3)c3cccnc3Cl)cc2C1=O` (stereo not given): the inhibition of growth at 10 µM worked out at 71.9% in the data set on MCF7 [3]; 61.1% in the data set with K562; 72.3% with MDA-MB-231 [4]; 49.3% in the data set on COLO 205; 58.4% in data set [6]; 44.8% in the data set on HepG2. Besides, in [5], the inhibition at 24 h, 10 µM is 0.8%. The IC50 in the data set on MCF7 [1] was 1050 nM; in the data set on MDA-MB-231 [2] (read-out: IC50), 990 nM.
